Patent US4459290A, “C-23-Modified derivatives of OMT, pharmaceutical compositions and method of use” (priority 1982, dated 1984)
Values after ≈ are worked out from the molar mass of the structure shown. Like-named read-outs stand apart in the source and are kept apart here.

Experiments:
Streptococcus sp. 80 = assay: MIC, broth-dilution microtiter test (Table VII); assay type: cell-based; conditions: Streptococcus sp. 80, broth-dilution microtiter
Method: (§1) Especially noteworthy is the improved activity against gram-negative bacteria for several derivatives when compared to the activity of OMT. […] The MIC's in Tables V and VI were determined by standard agar-dilution assays. The MIC's in Table VII were obtained using a conventional broth-dilution microtiter test.

[1] = tested on: Pasteurella multocida 60A; assay: MIC, broth-dilution microtiter test (Table VII); assay type: cell-based
Method: as §1

Mycoplasma synoviae = assay: MIC, broth-dilution microtiter test (Table VII); assay type: cell-based
Method: as §1

Staphylococcus aureus = assay: MIC, broth-dilution microtiter test (Table VII); assay type: cell-based
Method: as §1

Mycoplasma gallisepticum = assay: MIC, broth-dilution microtiter test (Table VII); assay type: cell-based
Method: as §1

[2] = tested on: Pasteurella hemolytica 23C; assay: MIC, broth-dilution microtiter test (Table VII); assay type: cell-based; conditions: P. hemolytica 23C
Method: as §1

[3] = tested on: Pasteurella hemolytica 22C; assay: MIC, broth-dilution microtiter test (Table VII); assay type: cell-based; conditions: P. hemolytica 22C
Method: as §1

[4] = tested on: Pasteurella multocida 40G; assay: MIC, broth-dilution microtiter test (Table VII); assay type: cell-based
Method: as §1

[5] = tested on: Pasteurella hemolytica 41D; assay: MIC, broth-dilution microtiter test (Table VII); assay type: cell-based; conditions: P. hemolytica 41D
Method: as §1

[6] = tested on: Pasteurella multocida 17E; assay: MIC, broth-dilution microtiter test (Table VII); assay type: cell-based
Method: as §1

[7] = tested on: Pasteurella multocida 22A; assay: MIC, broth-dilution microtiter test (Table VII); assay type: cell-based; conditions: P. multocida 22A, broth-dilution microtiter
Method: as §1

[8] = tested on: Pasteurella multocida 68C; assay: MIC, broth-dilution microtiter test (Table VII); assay type: cell-based
Method: as §1

Mycoplasma hyorhinis = assay: MIC, broth-dilution microtiter test (Table VII); assay type: cell-based
Method: as §1

Pasteurella multocida = assay: Protection of one-day-old chicks against Pasteurella multocida infection (Table IX); assay type: in vivo; conditions: subcutaneous 30 mg/kg × 2, 1 and 4 hours post-challenge
Method: The C-23 modified derivatives of OMT have also shown in vivo antibacterial activity against infections induced by gram-negative bacteria. Table IX summarizes the results of tests in which illustrative compounds were evaluated against Pasteurella infections in one-day-old chicks. The compounds were administered by subcutaneous injection at a dosage of 30 mg/kg, 1 and 4 hours post-challenge of the chicks with Pasteurella multocida (0.1 ml of a twenty-hour tryptose broth culture of an avian P. multocida given subcutaneously). In the tests, all ten non-medicated infected chicks died within 24 hours of Pasteurella challenge.

Streptococcus Group 9960 = assay: MIC, standard agar-dilution assay (Table V); assay type: cell-based
Method: as §1

[9] = tested on: Klebsiella pneumoniae KAE; assay: MIC, standard agar-dilution assay (Table V); assay type: cell-based
Method: as §1

[10] = tested on: Klebsiella pneumoniae X26; assay: MIC, standard agar-dilution assay (Table V); assay type: cell-based
Method: as §1

Shigella sonnei N9 = assay: MIC, standard agar-dilution assay (Table V); assay type: cell-based
Method: as §1

Escherichia coli EC14 = assay: MIC, standard agar-dilution assay (Table V); assay type: cell-based
Method: as §1

[11] = tested on: Staphylococcus aureus V41; assay: MIC, standard agar-dilution assay (Table V); assay type: cell-based
Method: as §1

[12] = tested on: Staphylococcus aureus S13E; assay: MIC, standard agar-dilution assay (Table V); assay type: cell-based
Method: as §1

Escherichia coli N10 = assay: MIC, standard agar-dilution assay (Table V); assay type: cell-based
Method: as §1

[13] = tested on: Staphylococcus epidermidis EPI1; assay: MIC, standard agar-dilution assay (Table V); assay type: cell-based
Method: as §1

[14] = tested on: Staphylococcus aureus X400; assay: MIC, standard agar-dilution assay (Table V); assay type: cell-based
Method: as §1

[15] = tested on: Staphylococcus epidermidis EPI2; assay: MIC, standard agar-dilution assay (Table V); assay type: cell-based
Method: as §1

[16] = tested on: Staphylococcus aureus X1.1; assay: MIC, standard agar-dilution assay (Table V); assay type: cell-based
Method: as §1

[17] = tested on: Streptococcus Group D X66; assay: MIC, standard agar-dilution assay (Table V); assay type: cell-based
Method: as §1

[18] = tested on: Streptococcus pyogenes C203; assay: ED50 in mice experimentally infected with S. pyogenes C203 (Table VIII); assay type: in vivo
Method: The C-23 modified derivatives of OMT of this invention have shown in vivo antimicrobial activity against experimental infections. When two doses of test compound were administered to mice experimentally infected with a gram-positive bacterium, S. pyogenes C203, the activity observed was measured as an ED50 value [effective dose in mg/kg to protect 50% of the test animals: see Warren Wick, et al., J. Bacteriol. 81, 233-235 (1961)].

[19] = tested on: Streptococcus pneumoniae Park I; assay: microbe, parasite or virus in culture; assay type: cell-based; conditions: S. pneumoniae Park I, agar dilution
Method: as §1

Escherichia coli TEM = assay: MIC, standard agar-dilution assay (Table V); assay type: cell-based
Method: (§2) The MIC's in Tables V and VI were determined by standard agar-dilution assays. The MIC's in Table VII were obtained using a conventional broth-dilution microtiter test.

[20] = tested on: Haemophilus influenzae R252; assay: MIC, standard agar-dilution assay (Table V); assay type: cell-based; conditions: H. influenzae R252, ampicillin-resistant strain, agar dilution
Method: as §2

[21] = tested on: Streptococcus pyogenes C203; assay: MIC, standard agar-dilution assay (Table V); assay type: cell-based; conditions: S. pyogenes C203, agar dilution
Method: as §2

[22] = tested on: Haemophilus influenzae Holt; assay: MIC, standard agar-dilution assay (Table V); assay type: cell-based; conditions: H. influenzae Holt, ampicillin-sensitive strain; agar dilution
Method: as §2

SMILES: CCC1OC(=O)CC(O)C(C)C(OC2OC(C)C(O)C(N(C)C)C2O)C(CC=O)CC(C)C(=O)C=CC(C)=CC1CN (stereo not shown) [Compound 9, 23-Deoxy-23-amino-OMT]
- MIC (Streptococcus sp. 80; read-out: MIC): 1.56 µg/mL (≈ 2.61 µM)
- MIC ([1]; Pasteurella multocida, 60A): 6.25 µg/mL (≈ 10.5 µM)
- MIC (Mycoplasma synoviae; Mycoplasmopsis synoviae): 0.78 µg/mL (≈ 1.31 µM)
- MIC (Staphylococcus aureus; Staphylococcus aureus): 12.5 µg/mL (≈ 20.9 µM)
- MIC (Mycoplasma gallisepticum; Mycoplasmoides gallisepticum): 0.78 µg/mL (≈ 1.31 µM)
- MIC ([2]; Pasteurella, read-out: MIC): 12.5 µg/mL (≈ 20.9 µM)
- MIC ([3]; Pasteurella, read-out: MIC): 12.5 µg/mL (≈ 20.9 µM)
- MIC ([4]; Pasteurella multocida, 40G): 12.5 µg/mL (≈ 20.9 µM)
- MIC ([5]; Pasteurella, read-out: MIC): 25 µg/mL (≈ 41.9 µM)
- MIC ([6]; Pasteurella multocida, 17E): 6.25 µg/mL (≈ 10.5 µM)
- MIC ([7]; Pasteurella multocida, read-out: MIC): 25 µg/mL (≈ 41.9 µM)
- MIC ([8]; Pasteurella multocida, 68C): 12.5 µg/mL (≈ 20.9 µM)
- MIC (Mycoplasma hyorhinis): 12.5 µg/mL (≈ 20.9 µM)
- Number of deaths/number treated (Pasteurella multocida): 0/10
- MIC (Streptococcus Group 9960; GROUP9960): 8 µg/mL (≈ 13.4 µM)
- MIC ([9]; Klebsiella pneumoniae): > 128 µg/mL
- MIC ([10]; Klebsiella pneumoniae, X26): 16 µg/mL (≈ 26.8 µM)
- MIC (Shigella sonnei N9): > 128 µg/mL
- MIC (Escherichia coli EC14; Escherichia coli, EC14): > 128 µg/mL
- MIC ([11]; Staphylococcus aureus, V41): 8 µg/mL (≈ 13.4 µM)
- MIC ([12]; Staphylococcus aureus, S13E): 8 µg/mL (≈ 13.4 µM)
- MIC (Escherichia coli N10; Escherichia coli, N10): > 128 µg/mL
- MIC ([13]; Staphylococcus epidermidis, EPI1): 8 µg/mL (≈ 13.4 µM)
- MIC ([14]; Staphylococcus aureus, X400): 8 µg/mL (≈ 13.4 µM)
- MIC ([15]; Staphylococcus epidermidis, EPI2): 8 µg/mL (≈ 13.4 µM)
- MIC ([16]; Staphylococcus aureus, X1.1): 8 µg/mL (≈ 13.4 µM)
- MIC [17]: 8 µg/mL (≈ 13.4 µM)
- ED50 ([18]; C203, po, read-out: ED50, Oral): > 100 mg/kg
- ED50 ([18]; C203, sc, mice, subcutaneous, doses given 1 and 4 hours postinfection, read-out: ED50, Subcutaneous): 2.6 mg/kg
- MIC ([19]; Streptococcus pneumoniae, read-out: MIC): 1 µg/mL (≈ 1.68 µM)
- MIC (Escherichia coli TEM; Escherichia coli): > 128 µg/mL
- MIC ([20]; Haemophilus influenzae, read-out: MIC): 1 µg/mL (≈ 1.68 µM)
- MIC ([21]; Streptococcus pyogenes, read-out: MIC): 2 µg/mL (≈ 3.35 µM)

SMILES: CCC1OC(=O)CC(O)C(C)C(OC2OC(C)C(O)C(N(C)C)C2O)C(CC=O)CC(C)C(=O)C=CC(C)=CC1CNC(=O)CNC(=O)C(C)NC(=O)OC(C)(C)C (stereo not shown) [Compound 13]
- MIC (Streptococcus sp. 80): 6.25 µg/mL (≈ 7.58 µM)
- MIC ([1]; P. multocida 60A, avian isolate, broth-dilution microtiter): 50 µg/mL (≈ 60.6 µM)
- MIC (Mycoplasma synoviae; M. synoviae, broth-dilution microtiter): 12.5 µg/mL (≈ 15.2 µM)
- MIC (Staphylococcus aureus; S. aureus, broth-dilution microtiter): 25 µg/mL (≈ 30.3 µM)
- MIC (Mycoplasma gallisepticum; M. gallisepticum, broth-dilution microtiter): 6.25 µg/mL (≈ 7.58 µM)
- MIC [2]: > 50 µg/mL
- MIC [3]: > 50 µg/mL
- MIC ([4]; P. multocida 40G, broth-dilution microtiter): 50 µg/mL (≈ 60.6 µM)
- MIC [5]: > 50 µg/mL
- MIC ([6]; P. multocida 17E, bovine isolate, broth-dilution microtiter): 50 µg/mL (≈ 60.6 µM)
- MIC [7]: > 50 µg/mL
- MIC ([8]; P. multocida 68C, broth-dilution microtiter): 50 µg/mL (≈ 60.6 µM)
- MIC (Mycoplasma hyorhinis; M. hyorhinis, broth-dilution microtiter): 50 µg/mL (≈ 60.6 µM)
- Number of deaths/number treated (Pasteurella multocida): 7/10
- MIC (Streptococcus Group 9960; Streptococcus Group 9960, agar dilution): 32 µg/mL (≈ 38.8 µM)
- MIC ([9]; K. pneumoniae KAE, agar dilution): -- (MIC ≥ 128)
- MIC ([10]; K. pneumoniae X26, agar dilution): -- (MIC ≥ 128)
- MIC (Escherichia coli EC14; E. coli EC14, agar dilution): -- (MIC ≥ 128)
- MIC ([11]; S. aureus V41, penicillin-resistant strain, agar dilution): 32 µg/mL (≈ 38.8 µM)
- MIC ([12]; S. aureus S13E, agar dilution): 32 µg/mL (≈ 38.8 µM)
- MIC (Escherichia coli N10; E. coli N10, agar dilution): -- (MIC ≥ 128)
- MIC ([13]; S. epidermidis EPI1, agar dilution): 16 µg/mL (≈ 19.4 µM)
- MIC ([14]; S. aureus X400, methicillin-resistant strain, agar dilution): 32 µg/mL (≈ 38.8 µM)
- MIC ([15]; S. epidermidis EPI2, agar dilution): 32 µg/mL (≈ 38.8 µM)
- MIC ([16]; S. aureus X1.1, agar dilution): 16 µg/mL (≈ 19.4 µM)
- MIC ([17]; Streptococcus Group D X66, agar dilution): 32 µg/mL (≈ 38.8 µM)
- MIC [19]: 4 µg/mL (≈ 4.85 µM)
- MIC [22]: 64 µg/mL (≈ 77.6 µM)
- MIC (Escherichia coli TEM; E. coli TEM, agar dilution): -- (MIC ≥ 128)
- MIC [20]: 64 µg/mL (≈ 77.6 µM)
- MIC [21]: 4 µg/mL (≈ 4.85 µM)
